From patent publication US12473262B2, “Aryl hydrocarbon receptor activators” (Oregon State University, priority 2019, dated 2025)

Molecular target: aryl hydrocarbon receptor (AhR) (Mus musculus (Mouse), UniProt P30561)
Assay: AhR ligand screening: AhRE-luciferase reporter in transfected Hepa1 cells
Format: cell-based
Settings: for Fold @ 1 nM: fold change of luciferase expression at 1 nM test compound relative to vehicle (0.1% DMSO); for Fold @ 100 nM: fold change of luciferase expression at 100 nM test compound relative to vehicle (0.1% DMSO); for Fold @ 10 uM: fold change of luciferase expression at 10 uM test compound relative to vehicle (0.1% DMSO); for Fold relative to benchmark @ 100 nM: luciferase expression at 100 nM test compound relative to 100 nM benchmark compound 11-cl-BBQ
Outline: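 Mouse Hepa1 cells transfected with an AhRE-luciferase reporter were plated at 1×10^4 cells/well, grown overnight, then exposed to compounds. Cell lysates were assayed for luciferase by luminometry, with results given as fold induction over 0.1% DMSO vehicle.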

Chain of aryl hydrocarbon receptor (AhR) (P30561 10-805): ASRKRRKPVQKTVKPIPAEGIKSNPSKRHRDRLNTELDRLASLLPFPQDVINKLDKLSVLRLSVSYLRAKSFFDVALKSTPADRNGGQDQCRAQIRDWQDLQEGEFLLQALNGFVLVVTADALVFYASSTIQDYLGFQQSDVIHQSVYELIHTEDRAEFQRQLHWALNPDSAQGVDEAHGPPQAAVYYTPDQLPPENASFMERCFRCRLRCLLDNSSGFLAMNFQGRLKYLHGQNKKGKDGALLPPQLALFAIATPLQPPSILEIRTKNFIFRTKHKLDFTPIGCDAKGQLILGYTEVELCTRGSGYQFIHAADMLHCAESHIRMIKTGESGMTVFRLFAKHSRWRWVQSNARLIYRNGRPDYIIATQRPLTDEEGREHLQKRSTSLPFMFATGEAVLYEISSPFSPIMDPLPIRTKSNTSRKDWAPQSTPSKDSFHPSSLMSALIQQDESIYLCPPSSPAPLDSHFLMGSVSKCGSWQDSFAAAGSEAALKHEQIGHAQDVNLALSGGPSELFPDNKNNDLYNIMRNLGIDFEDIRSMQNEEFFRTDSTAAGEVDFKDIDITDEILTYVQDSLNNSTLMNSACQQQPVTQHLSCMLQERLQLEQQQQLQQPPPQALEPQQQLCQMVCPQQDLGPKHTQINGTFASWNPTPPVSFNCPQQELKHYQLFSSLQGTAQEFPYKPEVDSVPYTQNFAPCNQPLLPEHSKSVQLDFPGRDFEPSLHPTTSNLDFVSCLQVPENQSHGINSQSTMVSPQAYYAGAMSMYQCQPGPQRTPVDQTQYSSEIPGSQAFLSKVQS
Chain of aryl hydrocarbon receptor (AhR) (P53762 whole entry partner): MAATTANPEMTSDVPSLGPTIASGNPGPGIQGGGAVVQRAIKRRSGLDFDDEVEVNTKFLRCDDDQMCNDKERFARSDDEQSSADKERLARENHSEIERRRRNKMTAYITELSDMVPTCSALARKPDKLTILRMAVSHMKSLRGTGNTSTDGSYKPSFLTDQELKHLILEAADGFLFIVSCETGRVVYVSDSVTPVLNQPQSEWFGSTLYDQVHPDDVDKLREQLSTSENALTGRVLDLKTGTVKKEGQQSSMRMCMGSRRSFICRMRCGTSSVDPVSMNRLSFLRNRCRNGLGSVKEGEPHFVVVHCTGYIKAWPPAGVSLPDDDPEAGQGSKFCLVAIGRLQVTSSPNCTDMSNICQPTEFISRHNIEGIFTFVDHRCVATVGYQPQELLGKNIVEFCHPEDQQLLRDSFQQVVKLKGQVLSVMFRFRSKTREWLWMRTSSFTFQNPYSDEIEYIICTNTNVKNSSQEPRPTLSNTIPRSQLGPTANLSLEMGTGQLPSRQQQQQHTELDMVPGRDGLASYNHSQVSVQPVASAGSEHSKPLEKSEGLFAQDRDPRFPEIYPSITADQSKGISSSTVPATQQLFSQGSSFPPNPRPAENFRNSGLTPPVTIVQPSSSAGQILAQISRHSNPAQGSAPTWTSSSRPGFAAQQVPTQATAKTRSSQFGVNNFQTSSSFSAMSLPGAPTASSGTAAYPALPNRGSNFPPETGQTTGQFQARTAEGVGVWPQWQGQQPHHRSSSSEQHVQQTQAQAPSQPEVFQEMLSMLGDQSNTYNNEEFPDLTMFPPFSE

| SMILES | Fold @ 1 nM [fold] | Fold @ 100 nM [fold] | Fold @ 10 uM [fold] | Fold relative to benchmark @ 100 nM [fold] |
| --- | --- | --- | --- | --- |
| O=C(c1cccc2ccccc12)c1c[nH]c2ccc(Cl)cc12 [Compound 364, (5-chloro-1H-indol-3-yl)(naphthalen-1-yl)methanone] | 1 | 2 | 11 | 0.05 |
| O=C(c1ccc(OC(F)(F)F)cc1)c1c[nH]c2ccc(Cl)cc12 [Compound 881] | 1 | 2 | 18 | 0.04 |
| O=C(c1ccc(F)c(F)c1)n1c(-c2ccc(Cl)c3ccccc23)nc2ccc(Cl)cc21 [Compound 870] | 1 | 9 | 74 | 0.31 |
| COC(=O)c1ccc2nc(-c3cccc4ccccc34)n(S(=O)(=O)c3ccc(C(F)(F)F)cc3)c2c1 [Compound 1402] | 1 | 2 | 3 | 0.07 |
| CC1(O)c2cccc3cccc(c23)-c2nc3ccccc3n21 (centres unmarked) [Compound 525, 7-methyl-7H-benzo[de]benzo[4,5]imidazo[2,1-a]isoquinolin-7-ol] | 1 | 5.6 | 20 | 0.4 |
| O=C(c1ccc(F)c(F)c1)n1c(-c2cccc3ccccc23)nc2ccc(Br)cc21 [Compound 690] | 2 | 22 | 30 | 0.85 |
| O=C(c1ccc2c(c1)OCCO2)n1c(-c2cccc3ccccc23)nc2cc(Cl)ccc21 [Compound 850] | 1 | 22 | 33 | 0.88 |
| O=C(c1ccc(F)c(F)c1)n1c(-c2cc3ccccc3o2)nc2cc(Cl)ccc21 [Compound 857] | 1 | 12 | 75 | 0.41 |
| COc1ccc(C(=O)n2c(-c3cc4ccccc4s3)nc3ccc(Cl)cc32)cc1 [Compound 591] | 2 | 2 | 38 | 0.13 |
| O=C(c1c[nH]c2ccc(Cl)cc12)C1CCCCC1 [Compound 895] | 1 | 1 | 10 | 0.02 |
| N#Cc1ccc(C(=O)n2c(-c3cccc4ccccc34)nc3cc(Cl)ccc32)cc1 [Compound 688] | 2 | 28 | 44 | 1.08 |
| COC(=O)c1ccc2c(c1)nc(-c1cccc3ccccc13)n2C(=O)c1ccc(OC(F)(F)F)cc1 [Compound 1342] | 1 | 2 | 2 | 0.07 |
| Cc1ccc(C(=O)c2c[nH]c3ccc(Cl)cc23)cc1 [Compound 882] | 1 | 1 | 2 | 0.02 |
| COc1ccc(Cn2c(-c3cccc4ccccc34)nc3cc(Cl)ccc32)cc1 [Compound 852] | 1 | 1 | 29 | 0.03 |
| O=C(c1ccc(F)c(F)c1)n1c(-c2csc3ccccc23)nc2ccc(Cl)cc21 [Compound 862] | 1 | 2 | 82 | 0.07 |
| COC(=O)c1ccc2c(c1)nc(-c1cccc3ccccc13)n2Cc1ccc(F)c(F)c1 [Compound 1338] | 1 | 1 | 2 | 0.03 |
| COc1ccc(C(=O)n2c(-c3cccc4ccccc34)nc3cc(Cl)ccc32)cc1OC [Compound 682] | 1 | 18 | 32 | 0.69 |
| O=C(c1ccc2nc(-c3cccc4ccccc34)n(S(=O)(=O)c3ccc4ccccc4c3)c2c1)N1CCCCC1 [Compound 1341] | 1 | 1 | 5 | 0.03 |
| O=C(c1cccc2ccccc12)n1ccc2cc(Cl)ccc21 [Compound 366] | 1 | 1 | 11 | 0.03 |
| O=C(c1ccc(F)c(F)c1)n1c(-c2ccnc3ccccc23)nc2cc(Cl)ccc21 [Compound 767] | 1 | 2 | 23 | 0.08 |
| O=c1c2cccc3cccc(c32)c2nc3ccc(Cl)cc3n12 [Compound 363, 7-chloro-3,10-diazapentacyclo[10.7.1.0^2,10.0^4,9.0^16,20]icosa-1(19),2,4(9),5,7,12,14,16(20),17-nonaen-11-one] | 4 | 14 | 30 | 0.69 |
| O=C(C1CCCCC1)n1c(-c2cc3ccccc3o2)nc2cc(Cl)ccc21 [Compound 859] | 1 | 12 | 80 | 0.41 |
| O=C(c1ccc2c(c1)nc(-c1cccc3ccccc13)n2S(=O)(=O)c1cccc(F)c1)N1CCOCC1 [Compound 1356] | 1 | 1 | 1 | 0.03 |
